Among the test systems are ACHN renal; PC-3 prostate; SW-620 colon; SN12C renal; 786-0 renal; SK-OV-3 ovarian; HCT-116 colon; CCRF-CEM leukemia; TK-10 renal; A549 NSCLC.
Holding throughout (experiment): NCI anticancer screen, dose series, 48 h

GI50 and TGI data for 7 molecules are collected here from PubChem BioAssay (NCI).

Structures are written as SMILES. “And” between values parts separate entries of the source, which are not always exact repeats. Identical values can stand only once.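 How tested: cells in 96-well plates exposed to compound for 48 hours at five concentrations. Abbreviation: GI50, concentration required for 50% inhibition of growth. TGI: total growth inhibition.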

As for `COc1cc(C(=O)N/N=C/c2cccc([N+](=O)[O-])c2)cc(OC)c1OC`, the GI50 with ACHN renal is 26.7 µM; in the assay on PC-3 prostate it was 2.92 µM; in the assay with SW-620 colon, 3.15 µM; in the assay with SN12C renal, 78.9 µM; with 786-0 renal it was 5.8 µM; in the assay with SK-OV-3 ovarian, 31.9 µM. Moreover, the GI50 in the assay with HCT-116 colon was 4.09 µM; in the assay on CCRF-CEM leukemia, 4.52 µM; in the assay with TK-10 renal it was 25.2 µM; with A549 NSCLC it was 8.02 µM. Moreover, the TGI in the assay with ACHN renal, in the assay with PC-3 prostate, with SW-620 colon, in the assay with SN12C renal, in the assay with 786-0 renal and in the assay with SK-OV-3 ovarian was greater than 100 µM each time. In addition, the TGI in the assay on HCT-116 colon, with CCRF-CEM leukemia, in the assay on TK-10 renal and with A549 NSCLC was greater than 100 µM throughout.
Take `CC1SC2(CCCCC2)N(NC(=O)c2[nH]c3ccc(F)cc3c2-c2ccccc2)C1=O` (stereo not given): the GI50 was greater than 100 µM with ACHN renal; 41.2 µM with PC-3 prostate; greater than 100 µM in the assay with SW-620 colon; 37.1 µM with SN12C renal; 28.4 µM with 786-0 renal; greater than 100 µM in the assay with SK-OV-3 ovarian. The GI50 with HCT-116 colon is 64.9 µM; in the assay with CCRF-CEM leukemia it was greater than 100 µM; with TK-10 renal it was 35.3 µM; with A549 NSCLC it was 72.3 µM. Further, the TGI with ACHN renal is greater than 100 µM; with PC-3 prostate, greater than 100 µM; with SW-620 colon, greater than 100 µM; in the assay on SN12C renal it was greater than 100 µM; in the assay on 786-0 renal, 89.2 µM; in the assay on SK-OV-3 ovarian it was greater than 100 µM. Also, the TGI in the assay on HCT-116 colon, in the assay on CCRF-CEM leukemia, in the assay on TK-10 renal and with A549 NSCLC was greater than 100 µM throughout.
Take `O=C(CC(C(=O)O)N1CCOCC1)c1ccccc1` (stereo not given): the TGI in the assay on ACHN renal was 30.7 µM; with PC-3 prostate, 36 µM; with SW-620 colon, 44.1 µM; in the assay with SN12C renal, 35.7 µM; in the assay on 786-0 renal it was 30.1 µM; with SK-OV-3 ovarian it was greater than 100 µM. Further, the TGI with HCT-116 colon is 27 µM; in the assay on CCRF-CEM leukemia, 15 µM; with TK-10 renal, 30.1 µM; in the assay on A549 NSCLC, greater than 100 µM.
Take `O=C(NO)C(O)C(O)C(O)C(O)CO` (stereo not given): the GI50 in the assay with ACHN renal is greater than 100 µM; with PC-3 prostate, greater than 100 µM; in the assay on SW-620 colon, greater than 100 µM; in the assay with SN12C renal it was greater than 100 µM; with 786-0 renal it was > 100 µM and 55.9 µM; in the assay with SK-OV-3 ovarian, greater than 100 µM. The GI50 in the assay on HCT-116 colon is > 100 µM and 27.1 µM; in the assay with CCRF-CEM leukemia it was 50.6 µM; in the assay with TK-10 renal it was greater than 100 µM; in the assay with A549 NSCLC, > 100 µM and 54.1 µM. The TGI in the assay on ACHN renal, in the assay with PC-3 prostate, with SW-620 colon, in the assay on SN12C renal, with 786-0 renal and in the assay with SK-OV-3 ovarian was greater than 100 µM in each case. The TGI was > 100 µM and 73.5 µM in the assay with HCT-116 colon; greater than 100 µM in the assay with CCRF-CEM leukemia; greater than 100 µM in the assay with TK-10 renal; greater than 100 µM in the assay on A549 NSCLC.
With `CCCCCCCCCCCCNC(=O)[C@H]1CSC(c2ccc(OC)c(F)c2)N1` (stereo not given in full), the GI50 in the assay with ACHN renal was 1.63 µM; with PC-3 prostate, 0.38 µM; in the assay on SW-620 colon, 0.87 µM; with SN12C renal it was 0.841 µM; with 786-0 renal it was 1.63 µM; in the assay on SK-OV-3 ovarian, 1.96 µM. Also, the GI50 is 0.421 µM in the assay on HCT-116 colon, 0.225 µM in the assay with CCRF-CEM leukemia, 1.95 µM with TK-10 renal and 1.89 µM in the assay on A549 NSCLC. Moreover, the TGI with ACHN renal was 3 µM; with PC-3 prostate, 1.43 µM; in the assay on SW-620 colon, 2.81 µM; in the assay with SN12C renal it was 2.14 µM; in the assay with 786-0 renal it was 3.08 µM; with SK-OV-3 ovarian, 3.43 µM. Also, the TGI with HCT-116 colon was 1.41 µM; in the assay with CCRF-CEM leukemia, 0.579 µM; with TK-10 renal it was 3.48 µM; in the assay with A549 NSCLC it was 3.69 µM.
As to `Cc1cnc2[nH]c(-c3ccccc3)cc(=O)c2c1`, the TGI with ACHN renal was greater than 100 µM; in the assay with PC-3 prostate, greater than 57.3 µM; with SW-620 colon, greater than 100 µM; in the assay with SN12C renal, greater than 14 µM; in the assay on 786-0 renal, greater than 100 µM; in the assay on SK-OV-3 ovarian it was 16.4 µM. Moreover, the TGI was greater than 100 µM in the assay with HCT-116 colon, 2.79 µM in the assay on CCRF-CEM leukemia, 99.5 µM with TK-10 renal and greater than 100 µM with A549 NSCLC.
As to `Cc1nn(C(=O)c2ccccc2O)c2c1C(c1ccc(O)cc1)SC(N)=N2` (stereo not given), the TGI with ACHN renal, in the assay on PC-3 prostate, with SW-620 colon, in the assay with SN12C renal, with 786-0 renal and in the assay with SK-OV-3 ovarian was greater than 10 µM in each case. Moreover, the TGI in the assay with HCT-116 colon is greater than 3.32 µM; in the assay with CCRF-CEM leukemia, greater than 10 µM; in the assay with TK-10 renal, greater than 10 µM; in the assay on A549 NSCLC it was greater than 10 µM.
